Laboratory results published in US11805798B2, “Process for increasing the stability of a composition comprising polyunsaturated omega-3 fatty acids” (Evonik Operations GmbH, priority 2014, dated 2023).
Several values for one entry are separate records, joined by “and”; a condition that tells them apart may be missing. Equal entries are not always repeated.

Columns and labels:
Type in all cases: physicochemical
[1] = Anisidine Value (AV), secondary oxidation products, Ph. Eur. 2.5.36; stability on storage
Experimental: An exemplary procedure for determining the Anisidine Value (AV) of a sample is performed as follows
The anisidine value is defined as 100 times the optical density measured in a 1 cm cell of a solution containing 1 g of the substance to be examined in 100 ml of a mixture of solvents and reagents according to the following method carry out the operations as rapidly as possible avoiding exposure to actinic light.
Test solution (a); Dissolve 0.500 g of the substance to be examined in trimethylpentane and dilute to 25.0 ml with the same solvent.
Test solution (b): To 5.0 ml of test solution (a) add 1.0 ml of a 2.5 g/t solution of p-anisidine in glacial acetic acid, shake and store protected from light.
Reference solution: To 5.0 ml of trimethylpentane add 1.0 ml of a 2.5 g/l solution of p-anisidine in glacial acetic acid, shake and store protected from light. Measure the absorbance of test solution (a) at the maximum at 350 nm using trimethylpentane as the compensation liquid. Measure the absorbance of test solution (b) at 350 nm exactly 10 min after its preparation, using the reference solution as the compensation liquid. Calculate the anisidine value (AV) from the expression. AV=(25*(1.2*A1−A2)/m • A1=absorbance of test solution (b) at 350 nm, • A2=absorbance of test solution (a) at 350 nm, • m=mass of the substance to be examined in test solution (a), in grams.
(§1) Primary oxidation products (hydroperoxides at double bonds) were quantified by determining the Peroxide Value (PV) according to Ph. Eur 2.5.5 (01/2008.20505). Secondary oxidation products (carbonyl compounds) were quantified by determining the Anisidine Value (AV) according to Ph, Eur. 2.5.36 (01/2008:20536).
(§2) About 50 g each of the liquid ethyl esters EPA-OEt and DHA-OEt used in experiments 1 and 2 as well as of the liquid fatty acids EPA and DHA obtained in experiments 1 and 2 were filled into 250 ml Schott Duran bottles with an inner diameter of about 60 mm (filling height about 20 mm). About 50 g each of the solid lysine-salts EPA-Lys and DHA-Lys obtained in experiments 3 and 4 were filled into 250 ml polyethylene wide-neck bottles (55 mm*55 mm*80 mm) (filling height about 60 mm-70 mm).
(§3) All of the bottles were placed together with opened lids in a drying oven with an opened ventilation valve at 50° C. and stored under these conditions for 26 days. Results of the analyses performed subsequently as well as the results obtained for the sodium-salts which were stored at room temperature (cf. experiments 5 and 6) are summarized in the following table (Table 1).

[2] = Peroxide Value (PV), primary oxidation products, Ph. Eur. 2.5.5; stability on storage
Experimental: An exemplary procedure for determining the Peroxide Value (PV) of a sample is performed as follows:
Reagents and solution: • 1. Acetic Acid—chloroform solution (7.2 ml Acetic Acid and 4.8 ml Chloroform). • 2. Saturated Potassium Iodide solution. Store in the dark. • 3. Sodium thiosulfate solution, 0.1N. Commercially available • 4. 1% Starch solution. Commercially available. • 5. Distilled or deionized water.
Conduct a blank determination of the reagents • 1. Weigh 2.00 (±0.02) g of sample into a 100 ml glass stoppered Erlenmeyer flask. Record weight to the nearest 0.01 g. • 2. By graduated cylinder, odd 12 ml of the acetic acid chloroform solution. • 3. Swirl the flask until the sample is completely dissolved (careful warming on a hot plate may be necessary). • 4. Using 1 ml Mohr pipette, add 0.2 ml of saturated potassium iodide solution • 5. Stopper the flask and swirl the contents of the flask for exactly one minute. • 6. Immediately add by graduated cylinder, 12 ml of either distilled or deionized water, stopper and stake vigorously to liberate the iodine from the chloroform layer. • 7. Fill the burette with 0.1 N sodium thiosulfate. • 8. If the starting color of the solution is deep red orange, titrate slowly with mixing until the color lightens. If the solution is initially a light amber color, go to step 9. • 9. Using a dispensing device: add 1 ml of starch solution as indicator. • 10. Titrate until the blue gray color disappears in the aqueous (upper layer). • 11. Accurately record the mis of titrant used to two decimal places.
Calculation: • S=titration of sample • B=titration of blank • Peroxide value=(S−B)*N thiosulfate*1000/weight of sample
as §1, §2, §3

[3] = Oligomer content by gel-chromatography (GPC), RI-detector; stability on storage
Experimental: Oligomeric PUFA constituents as well as their derivatives (collectively referred to as oligomer content) were quantified by gel-chromatographic means (GPC, styroldivinylbenzene-phase with tetrahydrofuran containing trifluoroacetic acid used as eluent). A refractive index (RI) detector was used for detection. Due to the fact that specific response factors of the constituents of the samples wore unknown, proportions were calculated based upon fractional proportions of the total area of chromatograms.
as §2, §3

[4] = Appearance after storage at room temperature; conditions: after storage for 3 months at room temperature; initially faintly beige powder
Experimental: The homogenous solution obtained was spray dried with a Büchi B190 laboratory-spray drier with an inlet temperature of 140° C. and an outlet temperature of about 80° C. 28.6 g of a faintly beige powder were obtained.
The homogenous solution obtained was spray dried with a Büchi B190 laboratory-spray drier writ an inlet temperature of 140° C. and an outlet temperature of about 80° C. 27.5 g of a faintly beige powder were obtained. […] Oligomer content was determined as 3.4 area-% (gel-chromatography. RI-detector).

[5] = t = 26 days, open bottles exposed to air, drying oven at 50° C.
[6] = after 3 months at room temperature

| Compound | Anisidine Value (AV) ([1]; t = 0, before storage) | Anisidine Value (AV) [1, 5] | Peroxide Value (PV) ([2]; t = 0, before storage) | Peroxide Value (PV) [2, 5] | Oligomer content ([3]; t = 0, before storage) | Oligomer content [3, 5] | Anisidine Value (AV) [1, 6] | Peroxide Value (PV) [2, 6] | Oligomer content [3, 6] | Appearance after storage [4] |
| --- | --- | --- | --- | --- | --- | --- | --- | --- | --- | --- |
| CC/C=C\C/C=C\C/C=C\C/C=C\C/C=C\C/C=C\CCC(=O)OCC [DHA-OEt, docosahexaenoic acid ethyl ester] | 16.0 A/g | 1732 A/g | 26.1 mmol/kg | 282.0 mmol/kg | 0.4 area-% | 32.6 area-% | – | – | – | – |
| CC/C=C\C/C=C\C/C=C\C/C=C\C/C=C\CCCC(=O)O [EPA-OH, all-cis-5,8,11,14,17-eicosapentaenoic acid] | 3.1 A/g | 424 A/g | 8.6 mmol/kg | 14.7 mmol/kg | – | 20.6 area-% | – | – | – | – |
| Docosahexaenoic Acid-L-Lysine Salt [DHA-Lys] | 3.1 A/g | <1.0 A/g | 1.7 mmol/kg | <1.0 mmol/kg | – | 0.9 area-% | – | – | – | – |
| Docosahexaenoic Acid-Sodium Salt [DHA-Na] | – | – | – | – | – | – | 77.9 A/g and 77.9 ** A/g | 6.9 mmol/kg and 6.9 ** mmol/kg | 3.4 area-% and 3.4 ** area-% | grey-coloured appearance |
| Eicosapentaenoic Acid-L-Lysine [EPA-Lys] | 2.1 A/g | <1.0 A/g | 1.3 mmol/kg | <1.0 mmol/kg | – | 0.6 area-% | – | – | – | – |
| Eicosapentaenoic Acid-Sodium Salt [EPA-Na] | – | – | – | – | – | – | 41.1 A/g and 41.1 ** A/g | 5.0 mmol/kg and 5.0 ** mmol/kg | 2.4 area-% and 2.4 ** area-% | grey-coloured appearance |
